Measured values: patent publication EP0039646A1, “1,4-Benzodioxines, processes for their preparation and their use in therapy” (RIOM LABORATOIRES- C.E.R.M. (Société Anonyme), priority 1980, dated 1981)

Experiments:
[1] = system: Récepteurs adrénergiques α; assay: Interference with the contraction of isolated rat vas deferens caused by cumulative doses of noradrenaline
Excerpt: (§1) L'activité pharmacologique des composés de l'invention a été révélée par recherche d'une interférence avec les récepteurs adrénergiques β1, β2 et α in vitro, et confirmée in vivo par les effets antihypertenseurs observés après administration desdits composés chez le rat spontanément hypertendu anesthésié.
(§2) Les essais effectués in vitro correspondent aux protocoles résumés ci-après : • - Récepteurs adrénergiques β1 : on recherche l'antagonisme de l'effet inotrope positif de l'isopré- naline sur les récepteurs β1 de l'oreillette gauche de cobaye stimulée électriquement. • - Récepteurs adrénergiques 6 2 : on recherche l'antagonisme des effets bronchodilatateurs de l'iso- prénaline sur les récepteurs β2 du muscle trachéal de cobaye. • - Récepteurs adrénergiques α : on étudie l'interférence des composés de l'invention sur la contraction du vas déferens isolé du rat, provoquée par des doses cumulatives de noradrénaline.
(§3) Les résultats exprimés par les paramètres usuels de pharmacologie moléculaire, selon les critères utilisés par Van Rossum [Arch. Int.

récepteurs β1 = target: T1, récepteurs β1 (Cavia porcellus, UniProt H0W3H1); assay: Antagonism of the positive inotropic effect of isoprenaline on electrically stimulated guinea pig left atrium; set-up: species or system cobaye
T1 construct: sur les récepteurs β1 de l'oreillette gauche de cobaye stimulée électriquement; from tissue; host or cells: isolated guinea pig left atrium, electrically stimulated
Excerpt: as §1, §2, §3

récepteurs β2 = target: T2, récepteurs β2 (Cavia porcellus, UniProt Q8K4Z4); assay: Antagonism of the bronchodilator effects of isoprenaline on guinea pig tracheal muscle; set-up: species or system cobaye
T2 construct: sur les récepteurs β2 du muscle trachéal de cobaye; from tissue; host or cells: guinea pig tracheal muscle
Excerpt: as §1, §2, §3

[2] = system: rat spontanément hypertendu anesthésié; assay: Antihypertensive effect in anaesthetised spontaneously hypertensive rats, carotid arterial pressure after i.v. injection; type: in vivo
Method: Les essais in vivo ont été effectués chez des rats mâles (S.H.R. - I.F.F.A.) conformément au protocole résumé ci-après :
Après anesthésie au pentobarbital, on a disposé un cathéter au niveau de l'artère carotide pour enregistrer la pression artérielle, et un cathéter au niveau d'une veine jugulaire pour permettre les injections des composés de l'invention mis en solution dans 0,5 ml de PEG 200 (polyéthylène glycol). La durée de l'injection était de 1 minute.

[3] = Acute oral toxicity in mice; settings: mouse, in vivo, voie orale, souris, read-out: toxicité aiguë
Method: Ces résultats montrent en particulier le grand intérêt du composé n° 2 qui présente un antagonisme très sélectif du type dualiste vis-à-vis des récepteurs β adrénergiques et fait preuve d'une remarquable activité in vivo chez le rat spontanément hypertendu anesthésié. Il a d'autre part été possible d'évaluer à 120 mg.kg-^1 la toxicité aiguë du composé n° 2 par voie orale chez la souris.

T1 sequence (H0W3H1 1-470): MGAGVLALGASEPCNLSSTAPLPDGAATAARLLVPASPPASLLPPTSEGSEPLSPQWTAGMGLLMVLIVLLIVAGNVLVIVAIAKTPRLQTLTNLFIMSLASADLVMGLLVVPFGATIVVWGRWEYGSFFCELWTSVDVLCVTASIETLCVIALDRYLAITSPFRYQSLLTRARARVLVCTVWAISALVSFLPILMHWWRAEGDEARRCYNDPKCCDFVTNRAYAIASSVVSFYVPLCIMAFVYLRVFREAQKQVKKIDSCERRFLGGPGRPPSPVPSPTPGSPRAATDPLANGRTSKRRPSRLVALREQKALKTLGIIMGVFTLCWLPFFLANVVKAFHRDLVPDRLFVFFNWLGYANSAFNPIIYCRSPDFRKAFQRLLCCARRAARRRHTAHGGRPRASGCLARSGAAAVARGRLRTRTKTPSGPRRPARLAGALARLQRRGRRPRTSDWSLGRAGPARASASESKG
T2 sequence (Q8K4Z4 whole entry): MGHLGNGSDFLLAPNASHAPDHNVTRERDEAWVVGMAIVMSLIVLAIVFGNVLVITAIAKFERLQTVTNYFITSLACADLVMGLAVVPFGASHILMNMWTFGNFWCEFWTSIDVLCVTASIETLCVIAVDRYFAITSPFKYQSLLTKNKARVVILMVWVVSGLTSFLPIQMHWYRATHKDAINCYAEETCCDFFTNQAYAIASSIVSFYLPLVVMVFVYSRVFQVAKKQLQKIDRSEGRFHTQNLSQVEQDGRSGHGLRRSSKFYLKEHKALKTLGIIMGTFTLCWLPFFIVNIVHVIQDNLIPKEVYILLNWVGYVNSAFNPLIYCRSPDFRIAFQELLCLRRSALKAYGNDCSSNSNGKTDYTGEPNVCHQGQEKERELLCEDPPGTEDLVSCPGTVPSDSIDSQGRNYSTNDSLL

Row | SMILES | Récepteurs α ([1]; noradrenaline) | action sur les récepteurs β1 (récepteurs β1; 10^-4 M/1) | Récepteurs β2 (récepteurs β2) | durée de l'effet antihypertenseur ([2]; dose 20 mg.kg^-1, jugular vein injection in PEG 200, male SHR rats under pentobarbital) | potentialisation des effets de la noradrénaline ([1]; dose 10^-4 M/1) | pD'2 (récepteurs β1; Récepteurs β1, guinea pig left atrium, isoprenaline, Van Rossum criteria) | Kb (récepteurs β1; Récepteurs β1, guinea pig left atrium, isoprenaline, Van Rossum criteria, read-out: pA2 (converted)) | LD50 [3] | durée de l'effet antihypertenseur ([2]; dose 2,5 mg.kg^-1, jugular vein injection in PEG 200, male SHR rats under pentobarbital)
1 | OC(CN1CCN(c2cccc(C(F)(F)F)c2)CC1)C1=COc2ccccc2O1 (stereo not shown) [exemple 1, 2-méthanoloα-[4-(3-trifluoromethylphenyl)piperazinyl-1] methyl benzo (1,4) dioxine] | inactif | très faiblement compétitive | inactif | 20 min | – | – | – | – | –
2 | COc1ccccc1N1CCN(CC(O)C2=COc3ccccc3O2)CC1 (stereo not shown) [exemple 2, 2-méthanolα-[4-(2-methoxyphenyl)piperazinyl-1] methyl benzo (1,4) dioxine] | – | – | inactif | – | 180% | 4,84 | 912 nM | 120 mg/kg | > 45 min
